Here are results for eight compounds from ChEMBL document CHEMBL1146918, “Synthesis and anti-angiogenesis activity of coumarin derivatives” (Bioorg Med Chem Lett, 2006).

The test system of test [1] is DLD-1. The test can be described thus: Antiproliferative activity against human DLD1 cell line. The test is classed as functional, cell-based.
Test [2] deals with NIH3T3. Nature of the test: Antiproliferative activity against mouse NIH3T3 cell line. In kind it is functional, cell-based.
Test [3] deals with B16. The test can be described thus: Antiproliferative activity against mouse B16 cell line. In kind it is functional, cell-based.
The test system of test [4] is HUVEC. Nature of the test: Antiproliferative activity against HUVEC cell line. The test is classed as functional, cell-based. The following applies: Homo sapiens.
Test [5] deals with U-87 MG. The test can be described thus: Antiproliferative activity against human U87 MG cell line. In kind it is functional, cell-based, U-87MG ATCC.
In test [6] the test system is HeLa. The test can be described thus: Antiproliferative activity against human HeLa cell line. In kind it is functional, cell-based.
Test [7] relates to SiHa. Nature of the test: Antiproliferative activity against human SiHa cell line. In kind it is functional, cell-based.

pIC50: −log10 of the molar value.

For the compound `CCN(CC)c1ccc2cc(-c3nc4ccccc4s3)c(=O)oc2c1`, the negative-log IC50 (pIC50) in test [1] (read-out: IC50), in test [2], in test [3], in test [4], in test [5] and in test [6] was under 4.15 each time. The compound further gave a negative-log IC50 (pIC50) in test [7] of under 4.15.

On to `O=Cc1cc2c3c(c1O)CCCN3CCC2`, for which the negative-log IC50 (pIC50) in test [1] (read-out: IC50) is under 4.15; in test [2], under 4.15; in test [3], under 4.15; in test [4] it was 4.45; in test [5], under 4.15; in test [6], under 4.15. Moreover, in test [7], the pIC50 is under 4.15.

Regarding `O=c1oc2c3c4c(cc2cc1-c1nc2ccccc2[nH]1)CCCN4CCC3`, the pIC50 was 4.45 in test [1] (read-out: IC50); 4.38 in test [2]; 5.05 in test [3]; 5.48 in test [4]; 4.48 in test [5]; 4.94 in test [6]. In addition, the negative-log IC50 (pIC50) in test [7] is 4.84.

Turning to `CCN(CC)c1ccc2c(C#N)c(-c3nc4ccccc4s3)c(=O)oc2c1`, the pIC50 in test [1] (read-out: IC50) was under 4.15; in test [2] it was under 4.15; in test [3], under 4.15; in test [4], 5.32; in test [5], under 4.15; in test [6] it was under 4.15. In addition, the pIC50 in test [7] is under 4.15.

As for `O=c1oc2c3c4c(cc2cc1[N+](=O)[O-])CCCN4CCC3`, the pIC50 in test [1] (read-out: IC50), in test [2], in test [3], in test [4], in test [5] and in test [6] was under 4.15 in each case. Besides, the pIC50 in test [7] is under 4.15.

In the case of `CCN(CC)c1ccc2cc(-c3nc4ccccc4[nH]3)c(=O)oc2c1`, the pIC50 was under 4.15 in test [1] (read-out: IC50); 5.03 in test [2]; 4.90 in test [3]; 5.02 in test [4]; 4.82 in test [5]; under 4.15 in test [6]. The compound further had a pIC50 in test [7] of 4.21.

Regarding `CCN(CC)c1ccc2cc(C(C)=O)c(=O)oc2c1`, the negative-log IC50 (pIC50) in test [1] (read-out: IC50), in test [2], in test [3], in test [4], in test [5] and in test [6] was under 4.15 each time. Moreover, in test [7], the pIC50 is under 4.15.

Turning to `CC(=O)O[C@H]1C(=O)[C@@]2(C)[C@H]([C@H](OC(=O)c3ccccc3)[C@]3(O)C[C@H](OC(=O)[C@H](O)[C@@H](NC(=O)c4ccccc4)c4ccccc4)C(C)=C1C3(C)C)[C@]1(OC(C)=O)CO[C@@H]1C[C@@H]2O` [PACLITAXEL], the negative logarithm of the IC50 (pIC50) is 7.05 in test [1]; 5.89 in test [2]; 7.10 in test [3]; 7.22 in test [4]; 7.10 in test [5]; 6.33 in test [6]. This compound showed a negative logarithm of the IC50 (pIC50) in test [7] of 5.46.
